# Measurements as given in paper PMC7021098 (Journal of Antimicrobial Chemotherapy, 2019).
# Read-outs that look alike come from different tables or passages of the source. Marks after values point to notes of the source that are not given here.
# What was measured:
# [1] = cited from earlier work
# [2] = Cabotegravir and rilpivirine concentrations in plasma and CSF by HPLC-MS/MS; format: in vivo, HIV-infected adults; conditions: for Total plasma drug / Total CSF drug / Unbound plasma drug / Total CSF/total plasma (%) / Kp: median (minimum–maximum); for Total CSF/total plasma (%) / Kp: paired samples; for Kp: human, CSF/plasma, intramuscular, Total CSF/total plasma (%)
# [3] = tested on: WT HIV-1; conditions: cited from earlier work; for in vitro EC50 for WT HIV-1: ref 10 (cabotegravir), 37 (rilpivirine)
# [4] = tested on: plasma proteins; conditions: cited from earlier work
# [5] = Phase 1, monthly IM LA, cited from earlier work
# [6] = tested on: P-glycoprotein; conditions: in vitro; ref 42 (cabotegravir), 43 (rilpivirine); cited from earlier work
# [7] = tested on: breast cancer resistance protein (BCRP); conditions: in vitro; ref 42 (cabotegravir), 43 (rilpivirine); cited from earlier work
# [8] = cited from earlier work; for reported CSF distribution: other NNRTIs
# [9] = Q4W, n = 3, 7 ± 3 days after injection
# [10] = Q8W, n = 15, 7 ± 3 days after injection
SMILES,protein binding in CSF [1],"median CSF level, fold above in vitro EC50 for WT HIV-1 ([2]; Q4W group) [fold]","Total CSF/total plasma (%) ([2]; Q4W, n = 3)","median CSF level, fold above in vitro EC50 for WT HIV-1 ([2]; Q8W group) [fold]","Total CSF/total plasma (%) ([2]; Q8W, n = 13)","Kp ([2]; Q4W, n = 3)","Kp ([2]; Q8W, n = 13)",in vitro EC50 for WT HIV-1 [3] [ng/mL],bound to plasma proteins [4] [%],time to maximum plasma concentrations [5],substrate for P-glycoprotein [6],substrate for breast cancer resistance protein (BCRP) [7],reported CSF distribution [8] [%],also measured
O=C(NCc1c(F)cc(F)cc1F)c1cn2c(c(O)c1=O)C(=O)N1[C@H]3CC[C@H](C3)O[C@@H]1C2 [bictegravir],predominantly protein-bound,,,,,,,,,,,,,
C[C@H]1CO[C@@H]2Cn3cc(C(=O)NCc4ccc(F)cc4F)c(=O)c(O)c3C(=O)N12 [cabotegravir],,127,0.344 (0.312–0.421) %,106,0.304 (0.218–0.449)^c %,0.003,0.0034,0.10,> 99.8,approximately 1 week,substrate,substrate,,"Total plasma drug ([2]; Q4W (cabotegravir LA 400 mg + rilpivirine LA 600 mg IM every 4 weeks), n = 3, 7 ± 3 days after injection): 3.02 (2.37–5.10) μg/mL; Total CSF drug [2, 9]: 0.0127 (0.0082–0.0159) μg/mL; Unbound plasma drug [2, 9]: 0.0019 (0.0014–0.0698) μg/mL; Total plasma drug ([2]; Q8W (cabotegravir LA 600 mg + rilpivirine LA 900 mg IM every 8 weeks), n = 15, 7 ± 3 days after injection): 3.92 (1.30–6.41) μg/mL; Total CSF drug ([2]; Q8W, n = 13, 7 ± 3 days after injection): 0.0106 (0.0053–0.0245)^c μg/mL; Unbound plasma drug [2, 10]: 0.0047 (0.0007–0.0220) μg/mL; EC50 ([3]; read-out: EC50 for WT HIV-1 clade B): 0.25 nM; maximum plasma concentrations (geometric mean) ([5]; after the fourth dose of cabotegravir): 2.2 to 4.4 µg/mL"
C[C@@H]1CCO[C@H]2Cn3cc(C(=O)NCc4ccc(F)cc4F)c(=O)c(O)c3C(=O)N12 [dolutegravir],,,,,,,,,,,,,,"CSF inhibitory quotient (ratio of drug concentration to EC50), median [8]: 66–90 fold; CSF-to-plasma ratio ([8]; oral administration at 50 mg once daily): 0.41%"
O=C1Nc2ccc(Cl)cc2[C@@](C#CC2CC2)(C(F)(F)F)O1 [efavirenz],,,,,,,,,,,,,0.5,
Cc1cc(C#N)cc(C)c1Oc1nc(Nc2ccc(C#N)cc2)nc(N)c1Br [etravirine],predominantly protein-bound,,,,,,,,,,,,1,
Cc1cc(/C=C/C#N)cc(C)c1Nc1ccnc(Nc2ccc(C#N)cc2)n1 [rilpivirine],,6,1.32%,7,1.07%,0.0107,0.0132,0.27,99.7,approximately 1 week,not a substrate,not a substrate,,"Total plasma drug [2, 9]: 134 (83.0–187) ng/mL; Total CSF drug ([2]; Q4W, n = 3): 1.67 (1.40–2.47) ng/mL; Total CSF/total plasma (%) ([2]; Q4W, n = 3, listed as Rilpivirine): 1.32 (1.25–1.69) %; Total CSF/total plasma (%) ([2]; Q8W, n = 13, listed as Rilpivirine): 1.07 (NQ to 1.52)^c^, d %; Total plasma drug [2, 10]: 192 (91.7–378) ng/mL; plasma concentration in the participant with non-quantifiable CSF level ([2]; single participant): 117 ng/mL; CSF concentration in the one participant with non-quantifiable level ([2]; single participant, Q8W, not quantifiable): under 1 ng/mL; maximum plasma concentrations (geometric mean) ([5]; after the second dose of rilpivirine): 0.126 to 0.168 µg/mL; CSF-to-plasma ratio ([8]; 25 mg administered orally for 60 days): 1.4%"
